# Assay results taken from patent publication US11040976B2, “Substrate selective inhibitors of insulin-degrading enzyme (IDE) and uses thereof” (President and Fellows of Harvard College, priority 2015, dated 2021).
# Columns and labels:
# [1] = target: T1, recombinant human IDE42-1019 (Homo sapiens, UniProt P14735); assay: Protease assay with fluorogenic peptide substrate Mca-[…](Dnp)-OH; format: biochemical; conditions: fluorogenic peptide Mca-RPPGFSAFK(Dnp)-OH; for IC50: apparent IC50 for compounds with submaximal inhibition, read-out: IC50 (μM) Proteolysis; for Emax: plateau at high inhibitor concentration, read-out: Imax (%) Proteolysis (inhibition maximum)
# T1 construct: recombinant human IDE42-1019 (R&D Systems); purchased R&D Systems
# T1 sequence (P14735 42-1019): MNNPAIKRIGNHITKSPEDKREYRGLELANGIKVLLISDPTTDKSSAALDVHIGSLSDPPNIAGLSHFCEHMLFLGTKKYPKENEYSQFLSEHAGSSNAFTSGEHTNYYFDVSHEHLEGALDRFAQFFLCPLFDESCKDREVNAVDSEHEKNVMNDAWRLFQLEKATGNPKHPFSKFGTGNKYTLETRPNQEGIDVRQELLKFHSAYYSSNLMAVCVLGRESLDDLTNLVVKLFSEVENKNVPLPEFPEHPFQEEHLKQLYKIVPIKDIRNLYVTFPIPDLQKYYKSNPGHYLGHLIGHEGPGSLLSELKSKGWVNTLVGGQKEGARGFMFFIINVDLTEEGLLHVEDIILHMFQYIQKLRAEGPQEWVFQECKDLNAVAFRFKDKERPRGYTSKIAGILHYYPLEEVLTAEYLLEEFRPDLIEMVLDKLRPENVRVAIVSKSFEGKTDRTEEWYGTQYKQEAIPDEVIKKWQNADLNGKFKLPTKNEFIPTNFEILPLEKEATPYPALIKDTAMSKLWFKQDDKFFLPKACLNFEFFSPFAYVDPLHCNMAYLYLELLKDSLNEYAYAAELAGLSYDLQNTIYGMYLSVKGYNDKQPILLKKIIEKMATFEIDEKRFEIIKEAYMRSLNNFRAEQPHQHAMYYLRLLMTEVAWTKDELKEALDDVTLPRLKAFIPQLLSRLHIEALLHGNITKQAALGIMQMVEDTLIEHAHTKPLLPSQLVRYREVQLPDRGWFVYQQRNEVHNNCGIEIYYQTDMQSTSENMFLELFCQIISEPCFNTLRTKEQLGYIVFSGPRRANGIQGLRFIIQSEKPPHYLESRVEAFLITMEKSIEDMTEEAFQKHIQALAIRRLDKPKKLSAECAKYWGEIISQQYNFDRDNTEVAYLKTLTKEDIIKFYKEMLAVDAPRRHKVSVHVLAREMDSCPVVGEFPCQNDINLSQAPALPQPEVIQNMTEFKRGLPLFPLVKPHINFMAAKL
# [2] = target: T2, Human N-His6-IDE42-1019 (E. coli expressed) (Homo sapiens, UniProt P14735); assay: Fluorescence anisotropy high-throughput screening assay (displacement of probe FL-6b); format: binding
# T2 construct: Human N-His6-IDE42-1019 (E. coli expressed); made in house; host or cells: E. coli (Rosetta 2 (DE3) pLysS, plasmid pTrcHis-A)
# T2 sequence (P14735 42-1019): T1 sequence (P14735 42-1019)
# Outline: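 Compounds at 20 μM final were added to 0.5 μM enzyme with fluorescein-labelled macrocycle probe ([…]) in 50 mM Tris pH 8.0, 1 M NaCl, 25 °C. Anisotropy (ex 492/em 523 nm) was read after 30 min in duplicate. Z-scores were calculated against plate DMSO controls.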
# [3] = target: T3, IDE (R&D), substrate glucagon (Homo sapiens, UniProt P14735); assay: HTRF assay for IDE-mediated degradation of glucagon; format: biochemical; conditions: compounds 67 μM, 0° C. for 10 minutes, versus DMSO alone, FIG. 5
# T3 construct: recombinant human IDE42-1019 (R&D Systems); purchased R&D
# T3 sequence (P14735 42-1019): T1 sequence (P14735 42-1019)
# Protocol: A solution of 0.05 μg/mL IDE (R&D) in “Diluent #5” (CisBio, 24 μL) was transferred to a 200 μL tube strip, and combined with 1 μL of each inhibitor (10 mM in DMSO, or as a 3-fold dilution series). […] This procedure was optimized to result in ˜75% degradation of glucagon. The reaction was terminated by 1 μL of inhibitor Ii1 (5 μM) and chilled on ice. The remaining glucagon was quantified using 10 μL of the quenched enzymatic reaction using the sensitive-range protocol Homogeneous Time-Resolved FRET Glucagon assay (CisBio® 62GLCPEF, see FIG. 3) in 20 μL total volume according to the manufacturer's instructions (384 well-plate Greiner 784904 non-binding). Fluorescence was measured using a Tecan M1000Pro plate reader (excitation=340 nm, emission=665 and 620 nm, lag time=60 μs) according the assay manufacturer's recommendations. Blank wells and glucagon standard curve were included in the assay.
# FIG. 4 compares the determined endpoint for insulin degradation with of glucagon degradation for a DMSO control, 6bK at 10 μM, and exemplary compounds of the invention at concentrations of 67 μM.
# The HTRF endpoint assay for insulin and glucagon was performed over a range of concentrations for several potential inhibitors and for 6bK.
# IDE, substrate glucagon = target: T4, IDE, substrate glucagon (Homo sapiens, UniProt P14735); assay: MALDI analysis of glucagon cleavage products (FIGS. 27-32); format: biochemical; conditions: FIG. 27A
# T4 sequence (P14735 1-1019): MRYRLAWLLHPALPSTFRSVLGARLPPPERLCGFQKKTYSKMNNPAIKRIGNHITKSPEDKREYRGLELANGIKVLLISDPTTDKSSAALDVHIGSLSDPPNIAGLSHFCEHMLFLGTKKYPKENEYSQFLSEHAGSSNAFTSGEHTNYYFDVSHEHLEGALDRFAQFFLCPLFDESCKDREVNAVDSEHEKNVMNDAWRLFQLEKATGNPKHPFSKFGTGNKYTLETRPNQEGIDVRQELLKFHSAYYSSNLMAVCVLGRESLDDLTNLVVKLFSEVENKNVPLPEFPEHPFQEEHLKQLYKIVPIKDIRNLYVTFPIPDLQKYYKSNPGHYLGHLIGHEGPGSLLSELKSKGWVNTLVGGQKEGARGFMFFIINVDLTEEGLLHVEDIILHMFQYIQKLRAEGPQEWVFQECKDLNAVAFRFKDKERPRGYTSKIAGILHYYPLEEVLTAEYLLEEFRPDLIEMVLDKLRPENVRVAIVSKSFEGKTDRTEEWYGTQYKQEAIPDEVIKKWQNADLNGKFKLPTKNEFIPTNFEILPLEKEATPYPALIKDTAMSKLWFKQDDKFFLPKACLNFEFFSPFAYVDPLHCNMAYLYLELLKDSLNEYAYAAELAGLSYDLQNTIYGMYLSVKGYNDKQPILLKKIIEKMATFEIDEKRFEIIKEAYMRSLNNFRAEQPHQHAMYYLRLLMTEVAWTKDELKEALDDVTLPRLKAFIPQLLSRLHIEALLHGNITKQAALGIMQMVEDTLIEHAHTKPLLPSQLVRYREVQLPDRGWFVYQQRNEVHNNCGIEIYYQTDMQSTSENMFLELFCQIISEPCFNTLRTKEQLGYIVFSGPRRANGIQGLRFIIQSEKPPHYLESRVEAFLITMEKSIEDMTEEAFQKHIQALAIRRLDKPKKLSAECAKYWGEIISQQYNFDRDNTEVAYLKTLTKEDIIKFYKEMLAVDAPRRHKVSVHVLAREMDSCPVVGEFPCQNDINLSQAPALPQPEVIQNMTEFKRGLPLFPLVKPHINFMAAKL
# [4] = final compound concentration 20 μM (6bK control 1 μM), values without asterisk
IC50 [1] [µM],"Average Z-score (Fluorescence anisotropy) [2, 4]",initial rates of glucagon cleavage [3],Emax [1] [%],"Average Z-score (Fluorescence anisotropy) ([2]; values marked *: from the screen using the diversity-oriented synthesis (DOS) informer set of plates, 20 μM)",Structure (SMILES),"main glucagon cleavage site (IDE, substrate glucagon)"
0.8,−20.82,enhanced,–,–,Cc1ccccc1-c1ccc([C@H]2[C@H](CO)N3C(=O)CN(C(=O)NC4CCCC4)C[C@@H]23)cc1 [compound 504],–
0.8,−22.36,reduced,60,–,CCCNC(=O)N1CC(=O)N2[C@H](CO)[C@@H](c3ccc(-c4cccc(C)c4)cc3)[C@@H]2C1 [compound 779],–
1.5,−17.90,enhanced,40,–,Cc1ccccc1-c1ccc([C@@H]2[C@@H](CO)N3CCCCN(S(C)(=O)=O)C[C@@H]23)cc1 [compound 591],–
0.001,–,–,–,–,Cc1cccc(-c2ccc([C@@H]3[C@@H](CO)N4CCCCN(S(=O)(=O)c5ccccc5C(F)(F)F)C[C@@H]34)cc2)c1C [JP-17],no change in the main glucagon cleavage site
–,–,–,–,–,Cc1cccc(-c2ccc([C@H]3C4CN(S(=O)(=O)c5ccccc5C(F)(F)F)CCCCN4[C@@H]3CF)cc2)c1C (stereo partly drawn) [JP-18],no change in the main glucagon cleavage site
2.5,−19.67,–,70,–,Cc1ccccc1-c1ccc([C@@H]2[C@H]3CN(C(=O)c4cccnc4)CC(=O)N3[C@H]2CO)cc1 [compound 745],–
–,–,–,80,−12.26*,COc1ccccc1C#Cc1ccc([C@H]2[C@H](CO)N3CCCCN(C(=O)C4CCC4)C[C@@H]23)cc1 [compound 180],–
–,−16.48,–,80,–,Cc1ccccc1-c1ccc([C@H]2[C@@H](CO)N3CCCCN(C(=O)c4cccnc4)C[C@H]23)cc1 [compound 106],–
